{"source": "ChEMBL document CHEMBL5120763", "about": "(J Nat Prod, 2022)", "key": {"[1]": {"test": "Toxicity in BALB/c nude mouse xenografted with human A549 cells assessed as toxic effect on lung at 1 to 2 mg/kg, ip dosed every 2 days for total of 18 days by H and E staining", "assay_type": "organism-based", "conditions": "in vivo, 432 h, dose 1-2 mg/kg, time 18 day"}, "[2]": {"system": "A549", "test": "Antitumor activity against human A549 cells xenografted in BALB/c nude mouse assessed as reduction in tumor size at 2 mg/kg, ip dosed every 2 days for total of 18 days", "assay_type": "functional, organism-based", "conditions": "time 18.0 day"}, "[3]": {"system": "NCI-H1299", "test": "Induction of apoptosis in human NCI-H1299 cells assessed as increase in cleaved PARP1 levels at 0.25 to 1 uM incubated for 24 hrs by Western blot analysis", "assay_type": "functional, cell-based", "conditions": "dose 0.25-1 µM"}, "[4]": {"system": "PC-9", "test": "Induction of apoptosis in human PC-9 cells assessed as increase in cleaved PARP1 levels at 0.25 to 1 uM incubated for 48 hrs by Western blot analysis", "assay_type": "functional, cell-based", "conditions": "dose 0.25-1 µM"}, "[5]": {"system": "A549", "test": "Increase in cleaved PARP1 protein expression levels in tumor of BALB/c nude mouse xenografted with human A549 cells at 1 to 2 mg/kg, ip dosed every 2 days for total of 18 days by Western blot analysis", "assay_type": "functional, organism-based", "conditions": "dose 1-2 mg/kg, time 18.0 day"}, "[6]": {"system": "PC-9", "test": "Induction of apoptosis in human PC-9 cells at 0.25 to 1 uM incubated for 48 hrs by FITC annexin V/PI double-staining based flow cytometry", "assay_type": "functional, cell-based", "conditions": "dose 0.25-1 µM, DDE = dose-dependent effect"}, "[7]": {"system": "PC-9", "test": "Induction of apoptosis in human PC-9 cells assessed as late apoptosis cells level at 0.5 uM incubated for 48 hrs by FITC annexin V/PI double-staining based flow cytometry (reference value: 2.07%)", "assay_type": "functional"}, "[8]": {"system": "PC-9", "test": "Induction of apoptosis in human PC-9 cells assessed as late apoptosis cells level at 0.25 uM incubated for 48 hrs by FITC annexin V/PI double-staining based flow cytometry (reference value: 2.07%)", "assay_type": "functional"}, "[9]": {"system": "PC-9", "test": "Induction of apoptosis in human PC-9 cells assessed as reduction in Bcl2 levels at 0.25 to 1 uM incubated for 48 hrs by Western blot analysis", "assay_type": "functional, cell-based", "conditions": "dose 0.25-1 µM"}, "[10]": {"test": "Toxicity in BALB/c nude mouse xenografted with human A549 cells assessed as toxic effect on liver at 1 to 2 mg/kg, ip dosed every 2 days for total of 18 days by H and E staining", "assay_type": "organism-based", "conditions": "in vivo, 432 h, dose 1-2 mg/kg, time 18 day"}, "[11]": {"test": "Toxicity in BALB/c nude mouse xenografted with human A549 cells assessed as induction of body weight loss at 1 to 2 mg/kg, ip dosed every 2 days for total of 18 days", "assay_type": "organism-based", "conditions": "in vivo, 432 h, dose 1-2 mg/kg, time 18 day"}, "[12]": {"test": "Toxicity in BALB/c nude mouse xenografted with human A549 cells assessed as toxic effect on heart at 1 to 2 mg/kg, ip dosed every 2 days for total of 18 days by H and E staining", "assay_type": "organism-based", "conditions": "in vivo, dose 1-2 mg/kg"}, "[13]": {"system": "NCI-H1299", "test": "Induction of apoptosis in human NCI-H1299 cells assessed as late apoptosis cells level at 0.25 uM incubated for 24 hrs by FITC annexin V/PI double-staining based flow cytometry (reference value: 4.27%)", "assay_type": "functional"}, "[14]": {"system": "NCI-H1299", "test": "Induction of apoptosis in human NCI-H1299 cells at 0.25 to 1 uM incubated for 24 hrs by FITC annexin V/PI double-staining based flow cytometry", "assay_type": "functional, cell-based", "conditions": "dose 0.25-1 µM, DDE = dose-dependent effect"}, "[15]": {"system": "NCI-H1299", "test": "Induction of apoptosis in human NCI-H1299 cells assessed as late apoptosis cells level at 1 uM incubated for 24 hrs by FITC annexin V/PI double-staining based flow cytometry (reference value: 4.27%)", "assay_type": "functional"}, "[16]": {"system": "NCI-H1299", "test": "Induction of apoptosis in human NCI-H1299 cells assessed as late apoptosis cells level at 0.5 uM incubated for 24 hrs by FITC annexin V/PI double-staining based flow cytometry (reference value: 4.27%)", "assay_type": "functional"}, "[17]": {"system": "PC-9", "test": "Induction of apoptosis in human PC-9 cells assessed as late apoptosis cells level at 1 uM incubated for 48 hrs by FITC annexin V/PI double-staining based flow cytometry (reference value: 2.07%)", "assay_type": "functional"}, "[18]": {"test": "Toxicity in BALB/c nude mouse xenografted with human A549 cells assessed as toxic effect on kidney at 1 to 2 mg/kg, ip dosed every 2 days for total of 18 days by H and E staining", "assay_type": "organism-based", "conditions": "in vivo, 432 h, dose 1-2 mg/kg, time 18 day"}, "[19]": {"system": "NCI-H1299", "test": "Induction of apoptosis in human NCI-H1299 cells assessed as reduction in Bcl2 levels at 0.25 to 1 uM incubated for 24 hrs by Western blot analysis", "assay_type": "functional, cell-based", "conditions": "dose 0.25-1 µM"}}, "note": "Calls of active or inactive are those of the source. No cut-off for these calls is given here.", "data": [{"smiles": "C[C@]12CC[C@H](O)C[C@@]1(O)CC[C@@H]1[C@@H]2CC[C@]2(C)[C@@H](c3ccc(=O)oc3)CC[C@]12O", "note": "[TELOCINOBUFAGIN]", "values": [{"measurement": "Activity", "setting": "[1]", "value": "Non-Toxic"}, {"measurement": "Activity", "setting": "[2]", "value": "Active"}, {"measurement": "Activity", "setting": "[3]", "value": "Active"}, {"measurement": "Activity", "setting": "[4]", "value": "Active"}, {"measurement": "Activity", "setting": "[5]", "value": "Active"}, {"measurement": "Activity", "setting": "[6]", "value": "Dde"}, {"measurement": "Activity", "setting": "[7]", "value": 11.37, "unit": "%"}, {"measurement": "Activity", "setting": "[8]", "value": 6.66, "unit": "%"}, {"measurement": "Activity", "setting": "[9]", "value": "Active"}, {"measurement": "Activity", "setting": "[10]", "value": "Non-Toxic"}, {"measurement": "Activity", "setting": "[11]", "value": "Non-Toxic"}, {"measurement": "Activity", "setting": "[12]", "value": "Non-Toxic"}, {"measurement": "Activity", "setting": "[13]", "value": 16.98, "unit": "%"}, {"measurement": "Activity", "setting": "[14]", "value": "Dde"}, {"measurement": "Activity", "setting": "[15]", "value": 38.41, "unit": "%"}, {"measurement": "Activity", "setting": "[16]", "value": 25.06, "unit": "%"}, {"measurement": "Activity", "setting": "[17]", "value": 22.7, "unit": "%"}, {"measurement": "Activity", "setting": "[18]", "value": "Non-Toxic"}, {"measurement": "Activity", "setting": "[19]", "value": "Active"}]}]}
